Measured values from patent publication US6387905B2, “Compounds useful for inhibition of farnesyl protein transferase” (Schering Corporation, priority 1996, dated 2002).
pIC50: −log10 of the molar value. Like-named read-outs stand apart in the source and are kept apart here.

What was measured:
[1] = molecular target: farnesyl protein transferase (FPT), H-ras (Homo sapiens, UniProt P49354+P49356); assay: FPT IC50 (H-ras), inhibition of farnesyl protein transferase, in vitro enzyme assay; assay type: biochemical; conditions: Table 4; read-out: FPT IC50
Protocol: (§1) FPT IC50 (inhibition of farnesyl protein transferase, in vitro enzyme assay) and COS Cell IC50 (Cell-Based Assay) were determined following the assay procedures described in WO 95/10516, published Apr. 20, 1995. GGPT IC50 (inhibition of geranylgeranyl protein transferase, in vitro enzyme assay), Cell Mat Assay, and anti-tumor activity (in vivo anti-tumor studies) could be determined by the assay procedures described in WO 95/10516. The disclosure of WO 95/10516 is incorporated herein by reference thereto.

Human tumor cells = assay: Soft Agar Assay (anchorage-independent growth); assay type: cell-based
Protocol: Anchorage-independent growth is a characteristic of tumorgenic cell lines. Human tumor cells are suspended in growth medium containing 0.3% agarose and an indicated concentration of a farnesyl transferase inhibitor. The solution is overlayed onto growth medium solidified with 0.6% agarose containing the same concentration of farnesyl transferase inhibitor as the top layer. After the top layer is solidified, plates are incubated for 10-16 days at 37° C. under 5% CO2 to allow colony outgrowth. After incubation, the colonies are stained by overlaying the agar with a solution of MTT (3-[4,5-dimethyl-thiazol-2-yl]-2,5-diphenyltetrazolium bromide, Thiazolyl blue) (1 mg/mL in PBS). Colonies can be counted and the IC50's can be determined.

COS Cell = COS Cell IC50 (Cell-Based Assay)
Protocol: as §1

[2] = Homo sapiens, Table 5, read-out: Soft Agar IC50
[3] = COS, Table 5, read-out: Cos Cell IC50
[4] = Homo sapiens, read-out: Soft Agar IC50, Table 5
[5] = COS, read-out: Cos Cell IC50, Table 5

Compound	pIC50 [1]	pIC50 (Human tumor cells; [2])	pIC50 (Human tumor cells; Table 5, read-out: Soft Agar IC50)	pIC50 (COS Cell; [3])	pIC50 (Human tumor cells; [4])	pIC50 (COS Cell; [5])	pIC50 (COS Cell; Table 5, read-out: Cos Cell IC50)
O=C(CC1CCOCC1)N1CCC(CC(=O)N2CCC([C@H]3c4ncc(Br)cc4CCc4cc(Cl)cc(Br)c43)CC2)CC1 [Cmpd 85.0-B]	8.30	6.48	–	7.85	–	–	–
O=C(CC1CCN(C(=O)Cn2cccc2)CC1)N1CCC([C@H]2c3ncc(Br)cc3CCc3cc(Cl)cc(Br)c32)CC1 [Cmpd 34.0-B]	8.38	6.34	–	8.05	–	–	–
O=C(CC1CCN(C(=O)Cn2cnc3cccnc32)CC1)N1CCC([C@H]2c3ncc(Br)cc3CCc3cc(Cl)cc(Br)c32)CC1 [Cmpd 13.0-B]	8.39	< 6.30	–	7.60	–	–	–
CCOC(=O)c1ncn(CC(=O)N2CCC(CC(=O)N3CCC([C@H]4c5ncc(Br)cc5CCc5cc(Cl)cc(Br)c54)CC3)CC2)c1C [Cmpd 54.0-B]	8.41	< 6.30	–	7.00	–	–	–
O=C(CC1CCN(C(=O)Cn2cnc([N+](=O)[O-])c2)CC1)N1CCC([C@H]2c3ncc(Br)cc3CCc3cc(Cl)cc(Br)c32)CC1 [Cmpd 26.0-B]	8.49	< 6.30	–	7.52	–	–	–
NC(=O)CC(=O)N1CCC(CC(=O)N2CCC([C@H]3c4ncc(Br)cc4CCc4cc(Cl)cc(Br)c43)CC2)CC1 [Cmpd 50.0-B]	8.48	7.02	–	> 8.00	–	–	–
CN(C)S(=O)(=O)NCC(=O)N1CCC(CC(=O)N2CCC([C@H]3c4ncc(Br)cc4CCc4cc(Cl)cc(Br)c43)CC2)CC1 [Cmpd 38.0-B]	8.49	6.68	–	8.00	–	–	–
O=C(Cc1cccs1)N1CCC(CC(=O)N2CCC([C@H]3c4ncc(Br)cc4CCc4cc(Cl)cc(Br)c43)CC2)CC1 [Cmpd 82.0-B]	8.15	< 6.30	–	> 8.00	–	–	–
CC(C)(C)OC(=O)NCCCC(=O)N1CCC(CC(=O)N2CCC([C@H]3c4ncc(Br)cc4CCc4cc(Cl)cc(Br)c43)CC2)CC1 [Example 89.0-B]	8.06	< 6.30	–	6.26	–	–	–
O=C(CC1CCN(C(=O)CC2CCCO2)CC1)N1CCC([C@H]2c3ncc(Br)cc3CCc3cc(Cl)cc(Br)c32)CC1 (some centres unmarked) [Cmpd 114.4-B]	8.11	6.44	–	8.00	–	–	–
O=C(NOCc1ccccc1)C(=O)N1CCC(CC(=O)N2CCC([C@H]3c4ncc(Br)cc4CCc4cc(Cl)cc(Br)c43)CC2)CC1 [Cmpd 60.0-B]	8.27	6.30	–	6.92	–	–	–
O=C(O)CCC(=O)N1CCC(CC(=O)N2CCC([C@H]3c4ncc(Br)cc4CCc4cc(Cl)cc(Br)c43)CC2)CC1 [Example 78]	8.92	–	–	–	< 6.30	7.12	–
CCOC(=O)CC(CC(=O)N1CCC(CC(=O)N2CCC(C3c4ncc(Br)cc4CCc4cc(Cl)cc(Br)c43)CC2)CC1)OC(C)=O (centres unmarked) [Example 16.0-B]	8.28	7.05	–	7.80	–	–	–
O=C(O)CCCCC(=O)N1CCC(CC(=O)N2CCC([C@H]3c4ncc(Br)cc4CCc4cc(Cl)cc(Br)c43)CC2)CC1 [Example 81]	8.44	–	–	–	6.32	7.52	–
COC(=O)c1cccn1CC(=O)N1CCC(CC(=O)N2CCC([C@H]3c4ncc(Br)cc4CCc4cc(Cl)cc(Br)c43)CC2)CC1 [Cmpd 35.0-B]	8.19	6.52	–	7.52	–	–	7.30
NS(=O)(=O)NCC(=O)N1CCC(CC(=O)N2CCC([C@H]3c4ncc(Br)cc4CCc4cc(Cl)cc(Br)c43)CC2)CC1 [Cmpd 39.0-B]	8.39	6.66	–	7.80	–	–	–
NC(=O)CCCCCC(=O)N1CCC(CC(=O)N2CCC([C@H]3c4ncc(Br)cc4CCc4cc(Cl)cc(Br)c43)CC2)CC1 [Cmpd 71.0-B]	8.48	6.62	–	7.72	–	–	–
CC(C)=NOCC(=O)N1CCC(CC(=O)N2CCC([C@H]3c4ncc(Br)cc4CCc4cc(Cl)cc(Br)c43)CC2)CC1 [Cmpd 9.0-B]	8.24	< 6.30	–	7.60	–	–	–
O=C1NC(=O)C(CC(=O)N2CCC(CC(=O)N3CCC([C@H]4c5ncc(Br)cc5CCc5cc(Cl)cc(Br)c54)CC3)CC2)N1 (some centres unmarked) [Cmpd 77.0-B]	8.49	6.62	6.67	7.85	–	–	–
NC(=O)CCCC(=O)N1CCC(CC(=O)N2CCC([C@H]3c4ncc(Br)cc4CCc4cc(Cl)cc(Br)c43)CC2)CC1 [Cmpd 114.0-B]	8.41	6.40	–	7.46	–	–	–
O=C(OCc1ccccc1)c1cccn1CC(=O)N1CCC(CC(=O)N2CCC([C@H]3c4ncc(Br)cc4CCc4cc(Cl)cc(Br)c43)CC2)CC1 [Cmpd 55.0-B]	8.04	< 6.30	–	6.70	–	–	–
CC(=O)C(=O)N1CCC(CC(=O)N2CCC([C@H]3c4ncc(Br)cc4CCc4cc(Cl)cc(Br)c43)CC2)CC1 [Cmpd 72.0-B]	8.27	6.49	–	8.00	–	–	–
O=C(CC1CCN(C(=O)CN2C(=O)CSC2=O)CC1)N1CCC([C@H]2c3ncc(Br)cc3CCc3cc(Cl)cc(Br)c32)CC1 [Cmpd 79.0-B]	8.36	< 6.30	–	6.82	–	–	–

Further lines, with some results ahead:

pIC50 [1]	pIC50 (Human tumor cells; [2])	pIC50 (Human tumor cells; Table 5, read-out: Soft Agar IC50)	Compound	pIC50 (COS Cell; [3])	pIC50 (Human tumor cells; [4])	pIC50 (COS Cell; [5])	pIC50 (COS Cell; Table 5, read-out: Cos Cell IC50)
8.74	6.96	–	O=C(CC1CCN(C(=O)Cn2cncn2)CC1)N1CCC([C@H]2c3ncc(Br)cc3CCc3cc(Cl)cc(Br)c32)CC1 [Cmpd 57.0-B]	> 8.00	–	–	–
8.89	6.30	–	O=C(O)c1cccn1CC(=O)N1CCC(CC(=O)N2CCC([C@H]3c4ncc(Br)cc4CCc4cc(Cl)cc(Br)c43)CC2)CC1 [Cmpd 52.0-B]	6.40	–	–	–
9.15	< 6.30	–	CC(C)(C)OC(=O)N1CC(O)CC1C(=O)N1CCC(CC(=O)N2CCC(C3c4ncc(Br)cc4CCc4cc(Cl)cc(Br)c43)CC2)CC1 (centres unmarked) [Example 24.0-B]	7.00	–	–	–
8.74	7.71	–	O=C(CO/N=C/c1cc[n+]([O-])cc1)N1CCC(CC(=O)N2CCC([C@H]3c4ncc(Br)cc4CCc4cc(Cl)cc(Br)c43)CC2)CC1 [Cmpd 22.0-B]	7.46	–	–	–
8.68	< 6.92	–	CN(C)C(=O)C(=O)N1CCC(CC(=O)N2CCC([C@H]3c4ncc(Br)cc4CCc4cc(Cl)cc(Br)c43)CC2)CC1 [Cmpd 33.0-B]	8.00	–	–	–
8.59	6.92	–	N#CCC(=O)N1CCC(CC(=O)N2CCC([C@H]3c4ncc(Br)cc4CCc4cc(Cl)cc(Br)c43)CC2)CC1 [Cmpd 44.0-B]	> 8.00	–	–	–
8.68	< 6.30	–	CONC(=O)C(=O)N1CCC(CC(=O)N2CCC(C3c4ncc(Br)cc4CCc4cc(Cl)cc(Br)c43)CC2)CC1 (centres unmarked) [Cmpd 49.0-B]	7.42	–	–	–
8.66	< 6.30	–	NCCC(=O)N1CCC(CC(=O)N2CCC([C@H]3c4ncc(Br)cc4CCc4cc(Cl)cc(Br)c43)CC2)CC1 [Cmpd 88.0-B]	7.64	–	–	–
8.80	< 6.30	–	Cc1cn(CC(=O)N2CCC(CC(=O)N3CCC([C@H]4c5ncc(Br)cc5CCc5cc(Cl)cc(Br)c54)CC3)CC2)cn1 [Cmpd 11.0-B]	7.54	–	–	–
8.54	6.30	–	O=C(Cc1c[nH]cn1)N1CCC(CC(=O)N2CCC([C@H]3c4ncc(Br)cc4CCc4cc(Cl)cc(Br)c43)CC2)CC1 [Cmpd 30.0-B]	8.05	–	–	–
8.55	< 6.30	–	CC(C)=NOCCC(=O)N1CCC(CC(=O)N2CCC([C@H]3c4ncc(Br)cc4CCc4cc(Cl)cc(Br)c43)CC2)CC1 [Cmpd 23.0-B]	> 8.00	–	–	–
